Laboratory results as given in the supplement of paper PMC10307832.

Tests used:
Experiment in all cases: relative viability (nuclei count vs DMSO), 5 days (fraction); higher = more cells survive
[1] = system: PC-14
Procedure, shortened: (§1)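 Relative viability equals treated-well nuclei counts divided by vehicle-well nuclei counts. Counts came from 4× images of lung cancer cell lines grown in 1536-well plates for 5 days after pin-tool dosing on the day after seeding. Dosing used one drug alone or a fixed anchor-drug dose plus five library-drug doses (not always all listed) in √10 steps, and values are medians of duplicate plates.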

[2] = system: NCI-H2342
Procedure, shortened: as §1

[3] = system: NCI-H1395
Procedure, shortened: as §1

[4] = system: HCC-15
Procedure, shortened: as §1

[5] = system: NCI-H2170
Procedure, shortened: as §1

[6] = system: NCI-H1355
Procedure, shortened: as §1

[7] = system: NCI-H1734
Procedure, shortened: as §1

[8] = system: NCI-H2228
Procedure, shortened: as §1

[9] = system: HOP-62
Procedure, shortened: as §1

[10] = system: UMC-11
Procedure, shortened: as §1

[11] = system: COR-L 105
Procedure, shortened: as §1

[12] = system: NCI-H1793
Procedure, shortened: as §1

[13] = system: SK-MES-1
Procedure, shortened: as §1

[14] = system: NCI-H1993
Procedure, shortened: as §1

[15] = system: NCI-H1755
Procedure, shortened: as §1

[16] = system: COR-L23
Procedure, shortened: as §1

[17] = system: NCI-H2347
Procedure, shortened: as §1

[18] = system: NCI-H358
Procedure, shortened: as §1

[19] = system: HARA
Procedure, shortened: as §1

[20] = system: NCI-H2009
Procedure, shortened: as §1

[21] = system: NCI-H647
Procedure, shortened: as §1

[22] = system: NCI-H838
Procedure, shortened: as §1

[23] = system: EKVX
Procedure, shortened: as §1

`CC1(C)CCC(c2ccc(Cl)cc2)=C(CN2CCN(c3ccc(C(=O)NS(=O)(=O)c4ccc(N[C@H](CCN5CCOCC5)CSc5ccccc5)c(S(=O)(=O)C(F)(F)F)c4)cc3)CC2)C1` [Navitoclax] + CC(=O)c1c(C)c2cnc(Nc3ccc(N4CCNCC4)cn3)nc2n(C2CCCC2)c1=O [Palbociclib] (partner 0.5 µM) gave a relative viability ([1]; first compound 0.005 µM) of 0.537, a relative viability ([1]; first compound 0.01581 µM) of 0.466 and a relative viability ([1]; first compound 0.05 µM) of 0.607. The relative viability ([1]; first compound 0.1581 µM) was 0.528, the relative viability ([1]; first compound 0.5 µM) was 0.509 and the relative viability ([2]; first compound 0.005 µM) was 0.611. The relative viability ([2]; first compound 0.01581 µM) was 0.531, the relative viability ([2]; first compound 0.05 µM) was 0.541 and the relative viability ([2]; first compound 0.1581 µM) was 0.477. The relative viability ([2]; first compound 0.5 µM) was 0.629, the relative viability ([3]; first compound 0.005 µM) was 0.617 and the relative viability ([3]; first compound 0.01581 µM) was 0.664. For the same compound, the relative viability ([3]; first compound 0.05 µM) was 0.674, the relative viability ([3]; first compound 0.1581 µM) was 0.653 and the relative viability ([3]; first compound 0.5 µM) was 0.583. The relative viability ([4]; first compound 0.005 µM) was 0.738, the relative viability ([4]; first compound 0.01581 µM) was 0.77 and the relative viability ([4]; first compound 0.05 µM) was 0.655. It also gave a relative viability ([4]; first compound 0.1581 µM) of 0.773, a relative viability ([4]; first compound 0.5 µM) of 0.687 and a relative viability ([5]; first compound 0.005 µM) of 0.391. The relative viability ([5]; first compound 0.01581 µM) was 0.382, the relative viability ([5]; first compound 0.05 µM) was 0.409 and the relative viability ([5]; first compound 0.1581 µM) was 0.394. It also gave a relative viability ([5]; first compound 0.5 µM) of 0.377, a relative viability ([6]; first compound 0.005 µM) of 0.381 and a relative viability ([6]; first compound 0.01581 µM) of 0.438. For the same compound, the relative viability ([6]; first compound 0.05 µM) was 0.429, the relative viability ([6]; first compound 0.1581 µM) was 0.385 and the relative viability ([6]; first compound 0.5 µM) was 0.409. For the same compound, the relative viability ([7]; first compound 0.005 µM) was 0.339, the relative viability ([7]; first compound 0.01581 µM) was 0.374 and the relative viability ([7]; first compound 0.1581 µM) was 0.296. It also gave a relative viability ([7]; first compound 0.5 µM) of 0.367, a relative viability ([8]; first compound 0.005 µM) of 0.915 and a relative viability ([8]; first compound 0.01581 µM) of 0.986. It also gave a relative viability ([8]; first compound 0.1581 µM) of 0.703, a relative viability ([8]; first compound 0.5 µM) of 0.687 and a relative viability ([9]; first compound 0.005 µM) of 0.449. The relative viability ([9]; first compound 0.01581 µM) was 0.442, the relative viability ([9]; first compound 0.05 µM) was 0.429 and the relative viability ([9]; first compound 0.1581 µM) was 0.391. The relative viability ([9]; first compound 0.5 µM) was 0.448, the relative viability ([10]; first compound 0.005 µM) was 0.388 and the relative viability ([10]; first compound 0.01581 µM) was 0.305. For the same compound, the relative viability ([10]; first compound 0.05 µM) was 0.333, the relative viability ([10]; first compound 0.1581 µM) was 0.322 and the relative viability ([10]; first compound 0.5 µM) was 0.319. It also gave a relative viability ([11]; first compound 0.005 µM) of 0.408, a relative viability ([11]; first compound 0.01581 µM) of 0.46 and a relative viability ([11]; first compound 0.05 µM) of 0.39. It also gave a relative viability ([11]; first compound 0.1581 µM) of 0.427, a relative viability ([11]; first compound 0.5 µM) of 0.34 and a relative viability ([12]; first compound 0.005 µM) of 0.312. It also gave a relative viability ([12]; first compound 0.01581 µM) of 0.281, a relative viability ([12]; first compound 0.1581 µM) of 0.336 and a relative viability ([12]; first compound 0.5 µM) of 0.295. For the same compound, the relative viability ([13]; first compound 0.005 µM) was 0.332, the relative viability ([13]; first compound 0.01581 µM) was 0.343 and the relative viability ([13]; first compound 0.05 µM) was 0.336. It also gave a relative viability ([13]; first compound 0.1581 µM) of 0.303, a relative viability ([13]; first compound 0.5 µM) of 0.385 and a relative viability ([14]; first compound 0.005 µM) of 0.7. For the same compound, the relative viability ([14]; first compound 0.01581 µM) was 0.744, the relative viability ([14]; first compound 0.05 µM) was 0.593 and the relative viability ([14]; first compound 0.1581 µM) was 0.749. The relative viability ([14]; first compound 0.5 µM) was 0.653, the relative viability ([15]; first compound 0.005 µM) was 0.433 and the relative viability ([15]; first compound 0.01581 µM) was 0.482. The relative viability ([15]; first compound 0.05 µM) was 0.436, the relative viability ([15]; first compound 0.1581 µM) was 0.477 and the relative viability ([15]; first compound 0.5 µM) was 0.488. It also gave a relative viability ([16]; first compound 0.005 µM) of 0.36, a relative viability ([16]; first compound 0.01581 µM) of 0.309 and a relative viability ([16]; first compound 0.05 µM) of 0.28. The relative viability ([16]; first compound 0.1581 µM) was 0.331, the relative viability ([16]; first compound 0.5 µM) was 0.278 and the relative viability ([17]; first compound 0.005 µM) was 0.468. For the same compound, the relative viability ([17]; first compound 0.01581 µM) was 0.48, the relative viability ([17]; first compound 0.05 µM) was 0.396 and the relative viability ([17]; first compound 0.1581 µM) was 0.439. It also gave a relative viability ([17]; first compound 0.5 µM) of 0.377, a relative viability ([18]; first compound 0.005 µM) of 0.128 and a relative viability ([18]; first compound 0.01581 µM) of 0.147. It also gave a relative viability ([18]; first compound 0.05 µM) of 0.142, a relative viability ([18]; first compound 0.1581 µM) of 0.121 and a relative viability ([18]; first compound 0.5 µM) of 0.134. For the same compound, the relative viability ([19]; first compound 0.005 µM) was 0.236, the relative viability ([19]; first compound 0.01581 µM) was 0.271 and the relative viability ([19]; first compound 0.05 µM) was 0.243. It also gave a relative viability ([19]; first compound 0.1581 µM) of 0.191, a relative viability ([19]; first compound 0.5 µM) of 0.216 and a relative viability ([20]; first compound 0.005 µM) of 0.186. It also gave a relative viability ([20]; first compound 0.01581 µM) of 0.302, a relative viability ([20]; first compound 0.05 µM) of 0.202 and a relative viability ([20]; first compound 0.1581 µM) of 0.255. It also gave a relative viability ([20]; first compound 0.5 µM) of 0.222, a relative viability ([21]; first compound 0.005 µM) of 0.336 and a relative viability ([21]; first compound 0.01581 µM) of 0.359. It also gave a relative viability ([21]; first compound 0.05 µM) of 0.24, a relative viability ([21]; first compound 0.1581 µM) of 0.414 and a relative viability ([21]; first compound 0.5 µM) of 0.344. For the same compound, the relative viability ([22]; first compound 0.005 µM) was 0.193, the relative viability ([22]; first compound 0.01581 µM) was 0.253 and the relative viability ([22]; first compound 0.05 µM) was 0.177. For the same compound, the relative viability ([22]; first compound 0.1581 µM) was 0.209, the relative viability ([22]; first compound 0.5 µM) was 0.224 and the relative viability ([23]; first compound 0.005 µM) was 0.44. For the same compound, the relative viability ([23]; first compound 0.01581 µM) was 0.405, the relative viability ([23]; first compound 0.05 µM) was 0.422 and the relative viability ([23]; first compound 0.1581 µM) was 0.403. It also gave a relative viability ([23]; first compound 0.5 µM) of 0.388.
